Assays:
HL-60 cells = test: Cell cycle arrest and apoptosis of HL-60 cells during induced differentiation; format: cell-based, human
Procedure: Control cells were treated with an equivalent concentration of ethanol (<0.02%). […]

pRB [1] = test: Western blot of pRB in HL-60 cells with anti-pRB^P− and anti-pRB^T mAbs; format: cell-based, human; details: HL-60, treated versus control
Source text: FIG. 10 presents a Western blot showing reactivity of anti-pRB^P− mAb(A) and anti-pRB^T mAb with proteins extracted from control (CON) and PMA-treated cells.
To reveal specificity of the antibodies used in these experiments, a standard Western blotting procedure was used on cellular lysates, as described in Gong et al., Cell Growth Differ. 6:1485–1493 (1995).

total pRB [2] = test: pRB^T in differentiating HL-60 cells, flow cytometry; format: cell-based, human; details: RA 5×10^−7 M 5 days, vitamin D3 10^−8 M 6 days
Procedure: (§1) The human promyelocytic leukemic cell line HL-60 was kindly provided by Dr. Harry A. Crissman of the Los Alamos National Laboratory (Los Alamos, N. Mex.). The cells were maintained in RPMI 1640 supplemented with 10% fetal calf serum, 100 units/ml penicillin, 100 μg/ml streptomycin, and 2 mM L-glutamine at a density between 2 and 8×10^5 cells/ml at 37.5° C. in the mixture of 95% air and 5% CO2 for the periods of time described in the legends to the respective figures. During the exponential phase of cell growth, at densities below 8×10^5 cells/ml, the mean duration of the cell cycle of these cells is 23 hours (estimated as described in Darzynkiewicz, “Mammalian cell cycle analysis,” in The Cell Cycle: A Practical Approach, P. Fantes and R. Brooks, Eds., pp. 45–68 (Oxford Univ. Press, Oxford, UK, (1993)), and the mean duration of G1, S, G2, and M 11, 9, 2, and 1 h, respectively. The medium, supplements, and antibiotics were obtained from Life Technologies (Grand Island, N.Y.).
(§2) All-trans retinoic acid (RA), 1,25-dihydroxy vitamin D3 (vitamin D3), and phorbol myristate acetate (PMA) were purchased from Sigma Chemical Co. (St. Louis, Mo.). […] Control cells were treated with an equivalent concentration of ethanol (<0.02%). Stock solution of PMA at 1.6 mM was prepared in DMSO, stored at −20° C. in the dark, and used at a final concentration of 4×10^−8 M. The cultures were kept shielded from light. […]
(§3) Methods were essentially as described in Example 1. […] The cells were then rinsed with PBS containing 1% BSA, counterstained with 4,6-diamidino-2-phenyl indole (DAPI) (Molecular Probes Inc., Eugene, Oreg.), and their fluorescence was measured by flow cytometry.
(§4) Cellular fluorescence was measured with the ELITE ESP flow cytometer/cell sorter (Coulter Inc., Miami, Fla.) using an argon ion laser (emission at 488 nm) combined with a helium-cadmium laser (emitting UV light). DNA content was analyzed based on DAPI fluorescence (blue emission) excited by UV light, while the anti-pRb^P− mAb (FITC)-related emission and anti-pRB^T (CYCHROME®)-related emission was excited with blue light laser. To obtain the mean fluorescence values as shown in FIGS. 7–10, the cells were gated based on differences in their DNA content to distinguish cells in G1, S, and G2/M, and from the mean values of the FITC fluorescence the mean value of the respective control cells (FITC-conjugated isotype-matched IgG1) in the same phase of the cycle was subtracted. The mean values of S phase cells were multiplied by 0.75 and of G2/M cells by 0.5 to express the pRB-associated cell fluorescence per unit of DNA. The data were normalized to the mean fluorescence value of G1 cells from the untreated, control culture (100), as shown in FIGS. 7–10.

hypophosphorylated pRB = test: pRB^P− in differentiating HL-60 cells, flow cytometry; format: cell-based, human; details: RA 5×10^−7 M 5 days, vitamin D3 10^−8 M 6 days
Procedure: as §1, §2, §3, §4

pRB [3] = test: pRB^P−/pRB^T ratio in differentiating HL-60 cells, flow cytometry; format: cell-based, human; details: RA 5×10^−7 M 5 days, vitamin D3 10^−8 M 6 days
Procedure: Briefly, the cells were fixed in suspension in 1% formaldehyde in PBS for 15 min on ice, then washed with PBS, and resuspended in ice-cold 80% ethanol for up to 24 h. […] The cells were then rinsed with PBS containing 1% BSA, counterstained with 4,6-diamidino-2-phenyl indole (DAPI) (Molecular Probes Inc., Eugene, Oreg.), and their fluorescence was measured by flow cytometry.

underphosphorylated pRB = test: pRB phosphorylation in mitogen-stimulated lymphocytes, anti-pRB^P− mAb flow cytometry; format: cell-based, Human
Procedure: (§5) Human peripheral blood lymphocytes, obtained from healthy volunteers by venipuncture, were isolated by density gradient centrifugation. The cells were washed twice with phosphate-buffered saline (PBS), resuspended in RPMI 1640 medium supplemented with 10% fetal calf serum, 100 units/ml penicillin, 100 μg/ml streptomycin and 2 mM L-glutamine at a density of 10^6 cells/ml, treated with 10 μg/ml of phytohemagglutinin (PHA) and incubated at 37.5° C. in the mixture of 95% air and 5% CO2 for the periods of time shown in the respective figure legends. The medium, supplements, and antibiotics were obtained from Life Technologies (Grand Island, N.Y.), PHA from Sigma Chemical Co. (St. Louis, Mo.).
Stock solution of staurosporine (STP; Kamiya Biomedical Co., Thousand Oaks, Calif.) was made in dimethyl sulfoxide (DMSO) at a concentration 0.2 mM and was stored at −20° C.
The cells were washed with PBS and fixed in suspension in 1% formaldehyde in PBS for 15 min on ice. The cells were then washed with PBS and resuspended in ice-cold 80% ethanol for up to 24 h. After fixation the cells were rinsed twice with PBS and resuspended in 100 μl of PBS containing 0.25% Triton X-100 (Sigma), 1% bovine serum albumin (BSA; Sigma) and 1.2 μg/ml of the anti-pRB^T mAb (clone G3-245; PharMingen cat. No. 14001A) conjugated with CYCHROME® and/or with 1 μg/ml of anti-pRB^P− mAb (clone G99-549; PharMingen cat. No. 14441A), conjugated with FITC and incubated for 2 hours at room temperature. The cells were then rinsed with PBS containing 1% BSA and their fluorescence was measured by flow cytometry.
Cellular fluorescence was measured with the ELITE ESP flow cytometer/cell sorter (Coulter Inc., Miami, Fla.) using either an argon ion laser (emission at 488 nm) alone or combined with a helium-cadmium laser (emitting UV light). In the first case, fluorescence signals were collected using the standard configuration of the flow cytometer (green fluorescence, representing FITC labeled anti-pRB^P− mAb; red fluorescence representing CyChrome tagged anti-pRB^T mAb). In the second case, DNA content was analyzed based on DAPI fluorescence (blue emission) excited by UV light, while the anti-pRB^P− mAb FITC-related emission and anti-pRB^T CYCHROME®-related emission was excited with blue light laser. Unless noted, the procedures for multicolor measurement of cellular fluorescence and multivariate cell analysis were essentially as described in Juan et al., Cell. Prolif. 29:259–266 (1996) and Juan et al., Exper. Cell Res. 227:197–202 (1996). The experiments were repeated several times, on lymphocytes obtained from three different donors, yielding essentially identical results.

cyclin D3 [4] = details: lymphocytes, 20 nM; cited from earlier work
lymphocytes = details: 20 nM; cited from earlier work
total pRB [5] = test: Total pRB in mitogen-stimulated lymphocytes, anti-pRB^T mAb flow cytometry; format: cell-based, Human; details: 10 μg/ml, throughout all times of exposure
Procedure: as §5
The cells were washed with PBS and fixed in suspension in 1% formaldehyde in PBS for 15 min on ice. […] The cells were then rinsed with PBS containing 1% BSA and their fluorescence was measured by flow cytometry.
Cellular fluorescence was measured with the ELITE ESP flow cytometer/cell sorter (Coulter Inc., Miami, Fla.) using either an argon ion laser (emission at 488 nm) alone or combined with a helium-cadmium laser (emitting UV light). In the first case, fluorescence signals were collected using the standard configuration of the flow cytometer (green fluorescence, representing FITC labeled anti-pRB^P− mAb; red fluorescence representing CyChrome tagged anti-pRB^T mAb). […]

cyclin D3 [6] = test: Cyclin D3 expression in mitogen-stimulated lymphocytes, flow cytometry; format: cell-based, Human; details: 10 μg/ml
Procedure: as §5
After cell fixation (as described above) the cells were washed twice with PBS, suspended in 1 ml of 0.25% Triton X-100 in PBS, kept on ice for 5 min, centrifuged (300 g; 5 min) and the cell pellet resuspended in 100 μl of PBS containing 0.5 μg of the anti-cyclin D3 mAb (clone G107-565, mouse IgG,; PharMingen cat. No. 14781) and 1% BSA and incubated for 2 hours at room temperature. […] The cells were rinsed again, resuspended in 5 μg/ml of PI and 0.1% RNase in PBS and incubated at room temperature for 20 min prior to fluorescence measurements. Isotype-matched IgG (Sigma) was used as a control to define the background fluorescence. […]

CCCCCCCCCCCCCC(=O)O[C@@H]1[C@@H](C)[C@@]2(O)[C@@H](C=C(CO)C[C@]3(O)C(=O)C(C)=C[C@@H]23)[C@@H]2C(C)(C)[C@]12OC(C)=O [PMA, phorbol myristate acetate]
cell cycle arrest on induced differentiation (HL-60 cells): cell arrest primarily in G0/1 | bands of hypophosphorylated, hyperphosphorylated and total pRB, Western blot (pRB [1]): increased intensity bands

CC1=C(/C=C/C(C)=C/C=C/C(C)=C/C(=O)O)C(C)(C)CCC1 [RA, All-trans retinoic acid]
increase in pRB^T of G0/1 cells versus untreated cultures (total pRB [2]): 60% | pRB^T of S and G2/M cells versus untreated cultures (total pRB [2]): nearly twofold higher | increase in pRB^P− of G0/1 cells (hypophosphorylated pRB): fourfold | pRB^P− of S and G2/M phase cells versus control cultures (hypophosphorylated pRB): over an order of magnitude higher | pRB^P−/pRB^T level of S and G2/M phase cells versus control (pRB [3]): over fivefold higher | cell cycle arrest on induced differentiation (HL-60 cells): cell arrest primarily in G0/1

CN[C@@H]1C[C@H]2O[C@@](C)([C@@H]1OC)n1c3ccccc3c3c4c(c5c6ccccc6n2c5c31)C(=O)NC4 [STP, staurosporine]
appearance of the cell population unreactive with anti-pRB^P− mAb (pRB phosphorylation) (underphosphorylated pRB; lymphocytes stimulated with PHA 24 hours, 20 nM): precluded the appearance of the cell population unreactive with anti-pRB^P− mAb | induction of cyclin D3 (cyclin D3 [4]): does not interfere with the induction of cyclin D3 | arrest of lymphocytes in cell cycle (lymphocytes): arrests lymphocytes in G1

C=C1/C(=C\C=C2/CCC[C@]3(C)[C@@H]([C@H](C)CCCC(C)(C)O)CC[C@@H]23)C[C@@H](O)C[C@@H]1O [vitamin D3, 1,25-dihydroxy vitamin D3]
increase in pRB^T of G0/1 cells versus untreated cultures (total pRB [2]): 20% | pRB^T of S and G2/M cells versus untreated cultures (total pRB [2]): nearly twofold higher | increase in pRB^P− of G0/1 cells (hypophosphorylated pRB): fourfold | pRB^P− of S and G2/M phase cells versus control cultures (hypophosphorylated pRB): over an order of magnitude higher | cell cycle arrest on induced differentiation (HL-60 cells): cell arrest primarily in G0/1

phytohemagglutinin [PHA]
percentage of anti-pRB^P− mAb negative cells (underphosphorylated pRB; 10 μg/ml, at 24 h): 45% | fraction of lymphocytes that did not react with anti-pRB^P− mAb (underphosphorylated pRB; 10 μg/ml, between 4 and 12 hours): ~80% | percentage of anti-pRB^P− mAb negative cells (underphosphorylated pRB; 10 μg/ml, decreasing from 98 between 3 and 4 hours of stimulation): about 20% | percentage of anti-pRB^P− mAb negative cells (underphosphorylated pRB; 10 μg/ml, up to 14 h): about 20% | frequency of cells reactive with anti-pRB^T mAb (total pRB [5]): over 80% | proportion of cyclin D3-positive cells (cyclin D3 [6]; at 12 h): ~70% | proportion of cyclin D3-positive cells (cyclin D3 [6]; at 24 h): 40%
